How the values were obtained:
[1] = tested on: E. coli ML35p inner membrane; experiment: Inner membrane disruption (β-galactosidase leakage, ONPG); type: cell-based, Escherichia coli
Description: Interactions with Bacterial Membranes. Interaction of the peptides with bacterial membranes in different phosphate buffers were evaluated using E. coli ML35p, constructed in our laboratory. At first, competent cells of E. coli ML35 were produced by conventional competent cell preparation method, then transformed with pBR322 plasmid. Transformed colonies were selected after growing on Luria-agar containing 50 μg/mL ampicillin. A single transformed colony was grown in presence of ampicillin first in Luria broth and then in MHBII and stored as 20% glycerol stock at −80° C. This frozen stock, on the day of the experiment, was thawed and grown in MHBII containing ampicillin up to OD600 nm=0.8-0.9, washed with PBS and then suspended in the respective buffer up to the required OD600 nm for use.
Membrane Disruptions. The outer and the inner membrane disruptions by the peptides were evaluated by incubating bacterial suspension with peptides and then measuring the activity of enzymes leaked out of the cells. 100 μL of 10× concentration of peptide in water was incubated with 900 μL bacterial suspension (OD600 nm˜0.1) in respective buffer for 3 hours at room temperature with gentle rotation. […]
The inner membrane disruption was tested by using the activity of β-galactosidase present in the […] of E. coli ML35p, which lacks lactose-permease. Peptides when disrupt the inner membrane enough to cause β-galactosidase to come out, the degree of disruption can be measured by the virtue of the kinetics of the enzyme and using a substrate called ortho-Nitrophenyl-β-galactoside (ONPG). β-galactosidase mediated hydrolyzed product of ONPG has an absorbance λmax=420 nm. Supernatant collected from the incubation of peptide with bacteria was added with ONPG solution in DPBS and incubated at 35° C. and continuous absorbance readings. The slope of the linear section of the absorbance curve (absorbance vs time), was used as a measure of membrane disruption and the % Disruption was calculated as: Equation 8: […]

[2] = tested on: multi-drug resistant (MDR) Acinetobacter baumannii (ATCC BAA-1795); experiment: Antimicrobial efficacy against ESKAPE pathogens; type: cell-based; details: mammalian serum
Description: (§1) Antimicrobial Studies. The phosphate buffers used for antimicrobial assays were supplemented with non-nitrogenous energy source, 0.1% (w/v) glucose. To conduct antimicrobial assays, bacterial strains were first suspended in respective buffers. E. coli (ATCC 25922) and B. cereus (ATCC 11778) were grown in MHB II up to OD600 nm˜1 and stored as frozen stock in 20% glycerol at −80° C. Occasionally they were thawed and enumerated by serial dilution and spreading on MHB II agar plates. The concentrations of the frozen stocks of E. coli and B. cereus strains were 1.0-1.1*10^8 CFU/mL with OD600 nm˜0.8. In case of other bacterial strains, they were grown on the days of experiment up to OD600 nm˜1-1.5 and then adjusted to OD600 nm˜0.8. The growth media of the drug-resistant bacterial strains were supplemented with few of the respective antibiotics against which they are resistant. 200 μL of the 0.8 OD600 nm culture were added to 10 mL of the respective buffer to obtain a suspension which was used to incubate with equal volumes of peptide solution in the same buffer.
(§2) Antimicrobial assays in different phosphate buffers and serum were conducted by adapting, with necessary modifications a fast high-throughput method based on Virtual Colony Count technique and later modified by incorporating the use of resazurin. At first serial dilution of a microbial strain in respective buffer was poured in the wells of 96 well polypropylene microplate and was then added with same volume of 2× MHB II supplemented with 80 μg/mL resazurin and incubated at 35° C. in a Gemini EM Microplate Reader (Molecular Devices) overnight with intermittent shaking. As the microbe grows it reduces non-fluorescent resazurin to fluorescent resorufin and the fluorescent intensity of each well were measured (excitation=570 nm, emission=590 nm) each 5 min for 15 hours. The time (t, min) to reach a certain fluorescence (RFU=20000 with respect to the starting fluorescence) was correlated with the initial bacterial concentration (in CFU/mL) in the particular well to obtain a calibration plot of the form: Log([Bacteria],CFU/mL)=b+m*t Equation 4: […]
(§3) To obtain antimicrobial efficacy of the peptides, 50 μL of serially diluted peptide in a buffer was incubated with 50 μL microbial suspension in the same buffer for 3 hours in black polypropylene 96 well plate. After incubation the wells were added with 100 μL of 2× MHB II supplemented with 80 μg/mL resazurin and then incubated with continuous fluorescence reading for overnight time period as described earlier. The surviving microbial population (CFU/mL) in each well were calculated by first finding the time to reach a fluorescence of RFU=20000 and the correlation (4) for the specific microbial strain and buffer. % Survival represents the proportion of viable cells in peptide treated cells relative to cells treated with the respective buffer alone. Equation 5: […]
(§4) Finally, the antimicrobial effectiveness of each peptide against the particular microbial strain in the specific buffer was determined by plotting % microbial survival as a function of the log of the concentration of the peptide and fitting the resulting data to a variable-slope sigmoidal regression model (equation 6). […]
(§5) ATRA1-R3W2-HYD, NA-CATH and PMB were evaluated for their effectiveness in mammalian serum conditions against pathogenic bacteria of both normal and drug-resistant strains. […]

[3] = tested on: Klebsiella pneumoniae (ATCC BAA-1705); experiment: Antimicrobial efficacy against ESKAPE pathogens; type: cell-based; details: mammalian serum
Description: as §1, §2, §3, §4, §5

Sequence	inner membrane disruption relative to HCMAB ([1]; 10 mM phosphate buffer)	inner membrane disruption relative to HCMAB ([1]; DPBS, HCMAB = 100%)	antimicrobial effectiveness, in words [2]	antimicrobial effectiveness, in words [3]
KRFKKFFKKLK (SEQ ID NO: 2) [ATRA1, first 11 residues of NA-CATH]	highest	below 10%		
RRWKRFFKRWK (SEQ ID NO: 15) [ATRA1-R3W2]		highest degree of inner membrane disruption		
RRWKRFFKRWKGGVIGVTFPF (SEQ ID NO: 50) [ATRA1-R3W2-HYD, ATRA1-R3W2 with hydrophobic tail of NA-CATH joined by -GG-]			effective in mammalian serum	effective in mammalian serum
